Data as given in patent US7355055B2, “Compounds for treatment of lipase-mediated diseases” (Reliance Life Sciences Pvt. Ltd., priority 2005, dated 2008).
Structures can show the parent of a compound that is named as a salt.

Columns and labels:
Pancreatic Lipase = target: T1, Pancreatic Lipase (Sus scrofa, UniProt P00591); test: Pancreatic lipase inhibition assay (p-nitro phenol palmitate substrate, 96-well); assay type: biochemical; settings: for IC50: dose range 6.25 μM-200 μM, interpolated by linear regression; for inhibition at 100 µM / inhibition at 200 µM: pancreatic lipase, 37° C., OD 405 nm; for inhibition at 100 µM: compound 100 μM; for inhibition at 200 µM: compound 200 μM
T1 construct: purchased Sigma L-3126
T1 sequence (P00591 1-450): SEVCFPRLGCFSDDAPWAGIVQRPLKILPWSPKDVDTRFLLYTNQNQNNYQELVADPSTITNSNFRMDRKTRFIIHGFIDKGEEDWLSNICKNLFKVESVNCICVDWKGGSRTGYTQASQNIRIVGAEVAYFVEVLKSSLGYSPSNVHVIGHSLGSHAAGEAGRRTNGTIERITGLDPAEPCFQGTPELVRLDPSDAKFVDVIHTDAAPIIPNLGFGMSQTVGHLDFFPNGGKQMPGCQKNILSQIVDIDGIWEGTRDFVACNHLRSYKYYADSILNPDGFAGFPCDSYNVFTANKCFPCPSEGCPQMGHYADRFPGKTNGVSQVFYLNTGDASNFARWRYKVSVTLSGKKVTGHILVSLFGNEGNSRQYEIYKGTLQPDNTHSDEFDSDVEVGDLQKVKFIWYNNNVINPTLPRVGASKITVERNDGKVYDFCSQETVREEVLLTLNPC
Procedure: (§1) Preparation of test samples: Structures #2-#19 were dissolved in 1 mL DMSO to obtain a 10 mM stock solution, and were vortexed to dissolution and stored at 4° C. The various concentration of working samples were prepared in 0.2 M phosphate buffer, pH-8.0. This sample was used as test sample for all further assays.
Lipase assay: Lipase assay was performed by method described by Winkler and Stuckmann, 1979, with modification. (Winkler, U. K. & Stuckmann, M. Glycogen, hyaluronate, and some other polysaccharides greatly enhance the formation of exolipase by Serratia marcescens. J. Bacteriol. 138: 663-670 (1979)) Assay was designed, using a 96-well format. The substrate used in this assay was p-nitro phenol palmitate (Sigma, Cat No-N-2752). 4.5 mg of p-nitro phenol palmitate was dissolved in 200 μl of N,N-dimethyl formamide (Sigma, Cat No, D-4551) and volume made up to 10 ml with 0.1 M pH 8.0 phosphate buffer. Pancreatic Lipase (Sigma, Cat No. L-3126) sample was prepared by dissolving the enzyme in 0.1M phosphate buffer at a concentration of 5 mg/ml. The reaction mixture consisted of 150 μl substrate solution; 40 μl phosphate buffer (pH 8.0, 0.2 M) and 10 μl lipase solution. The reaction mixture was incubated at 37° C. and optical density was measured at 405 nm after incubation. Enzyme activity was presented in the form of international unit (IU).
Lipase activity: One enzyme unit of lipase is defined as that quantity releasing 1 nm of free phenol from the substrate (p-nitro phenol palmitate) per min per ml under the standard assay condition (Winkler and Stuckmann, 1979; Yadav R P, Saxena R K, Gupta R. Davidson W S., Purification and characterization of a region-specific lipase from Aspergillus terreus. Biotechnol. Appl. Biochem. (1998) 28, (243-249)). It is derived from standard graph of p-nitro phenol (Sigma, 104-8).
(§2) Lipase inhibition assay: Enzyme inhibition assay was performed in a dose dependent manner. The concentration of the synthetic analogs checked were 100 μM & 200 μM. The assay was similar to assay described above except 40 μl of test sample was used instead of phosphate buffer in control. Optical density was measured at 0 hr and following incubation at 37° C.
Enzyme Inhibition: Enzyme inhibition was presented in the term of relative activity and percentage inhibition simply on the basis of change in international unit (IU).
as §1, with “Synthetic analogues” for “Structures #2-#19”, “ml” for “mL”, “solution. The samples” for “solution, and”, “O.2” for “0.2”
as §2, with “6.25 μM-200” for “100 μM & 200”, “C. The enzyme activity was measured in terms of international unit (IU).” for “C.”
Lipase activity: One enzyme unit of lipase is defined as that quantity releasing 1 nm of free phenol from the substrate (p-nitro phenol palmitate)/min per ml under standard assay conditions. It is derived from standard graph of p-nitro phenol (Sigma, 104-8)
Percent Inhibition: Enzyme inhibition was presented in the term of % inhibition simply on the basis of change in international unit (IU).
The value of IC50 was derived from linear regression. The value derived is based on interpolated data.

Structure (SMILES)	IC50 (Pancreatic Lipase) [µM]	inhibition at 100 µM (Pancreatic Lipase) [%]	inhibition at 200 µM (Pancreatic Lipase) [%]	melting point [°C]
CCCCCCCCCCCC1=C(OC(=O)c2ccccc2F)C(=O)C=C(OC(=O)c2ccccc2F)C1=O [Structure #4, 2,5-bis-(2-fluorophenylcarbonyloxy)-3-undecyl-1,4-benzoquinone]	7.78	99.6	100	66.2 to 68
CCCCCCCCCCCC1=C(OC(=O)c2cccc([N+](=O)[O-])c2)C(=O)C=C(OC(=O)c2cccc([N+](=O)[O-])c2)C1=O [Structure #11, 2,5-bis-(3-nitrophenylcarbonyloxy)-3-undecyl-1,4-benzoquinone]	27	97.4	98	112.6 to 114.4
CCCCCCCCCCCC1=C(OC(=O)c2cccc(F)c2)C(=O)C=C(OC(=O)c2cccc(F)c2)C1=O [Structure #2, 2,5-bis-(3-fluorophenylcarbonyloxy)-3-undecyl-1,4-benzoquinone]	< 6.25	99.2	97.9	73.2 to 75.6
CCCCCCCCCCCC1=C(OC(=O)c2ccc(Cl)cc2)C(=O)C=C(OC(=O)c2ccc(Cl)cc2)C1=O (as salt: Na) [Structure #9, 2,5-bis-(4-chlorophenylcarbonyloxy)-3-undecyl-1,4-benzoquinone]				110.2 to 112
CCCCCCCCCCCC1=C(OC(=O)c2ccc(OC)cc2)C(=O)C=C(OC(=O)c2ccc(OC)cc2)C1=O (as salt: Na) [Structure #18, 2,5-bis-(4-methoxyphenylcarbonyloxy)-3-undecyl-1,4-benzoquinone]				99.2 to 100.5
